Here are results for three molecules from publication PMC3955162 (Nature neuroscience, 2013).

Positions count from the first letter of the chain named.

Data set [1] addresses T1, ACR-23(I301N) (Caenorhabditis elegans, UniProt G5EG88, I301N).
T1 sequence (G5EG88 20-545 I301N): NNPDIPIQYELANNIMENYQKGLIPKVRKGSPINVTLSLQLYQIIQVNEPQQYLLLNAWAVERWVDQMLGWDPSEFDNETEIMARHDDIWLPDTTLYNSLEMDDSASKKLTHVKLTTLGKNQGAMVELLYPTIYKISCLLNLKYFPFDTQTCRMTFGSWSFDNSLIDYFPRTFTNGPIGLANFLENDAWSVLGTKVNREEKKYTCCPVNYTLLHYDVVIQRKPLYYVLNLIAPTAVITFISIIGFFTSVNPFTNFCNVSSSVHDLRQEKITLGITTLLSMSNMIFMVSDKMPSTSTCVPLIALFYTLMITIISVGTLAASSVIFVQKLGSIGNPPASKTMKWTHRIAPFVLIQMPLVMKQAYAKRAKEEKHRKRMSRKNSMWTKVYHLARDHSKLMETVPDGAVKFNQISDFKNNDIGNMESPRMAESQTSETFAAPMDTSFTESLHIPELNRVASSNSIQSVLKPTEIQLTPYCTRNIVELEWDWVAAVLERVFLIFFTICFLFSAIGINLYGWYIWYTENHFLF
Briefly: two-electrode voltage clamp in Xenopus oocytes expressing ACR-23. In kind it is cell-based.

For data set [2], the target named is T2, ACR-23 (Caenorhabditis elegans, UniProt G5EG88).
T2 sequence (G5EG88 20-545): T1 sequence (G5EG88 20-545 I301N) with N282I
The data set is described as above. In kind it is cell-based.

The target in data set [3] is T2, ACR-23. Briefly: two-electrode voltage clamp in Xenopus oocytes. In kind it is cell-based.
Substrate in data set [4]: C[N+](C)(C)CC(=O)O
Briefly: cells, lysate or membranes. Conditions: Na+ and Cl−.

Regarding `C[N+](C)(C)CC(=O)O` [betaine, N, N, N-trimethylglycine], the figures for the EC50 in data set [1] and in data set [2] were 166 µM and 1400 µM, respectively.

As to `C[C@](C#N)(COc1cc(C#N)ccc1C(F)(F)F)NC(=O)c1ccc(SC(F)(F)F)cc1` [monepantel], in data set [3], the “two-electrode voltage clamp in Xenopus oocytes; potentiation of 1 mM betaine cur” value worked out at 300 pM.

B1: SNF-3 (Caenorhabditis elegans) (protein)
chain: MGTSEHVPLPTDEAKAKELEQSQHSEEPDRGQWTGKFDFLMSMVAYAVGLGNVWRFPYLCYKNGGGSFLVVYMIFFCLAAVPIFLMEVTVGQYLQKGAMEMWLMCPLFRGVGIGNVVIAFMCIAYFCVIVAWAMFYMISSIAWVFPWETCNNYWNDATCVTGKENFTELARIKALVASAGGHTQTSVEQFWEKRVLHDTGDISEFGGIQWELFFIMAAAWLIVYFALWKGITQARKFVYFCALFPYVLIFILLIRGLTLEGAGTGIYFYLKPNATRLLDTAVWKDAGTQVFYSYGVGFGALIALGSHNKFNHNCFKDAITMCFINGCTSITAGFAVFSILGYMSHVAQKDISEIVKPGVGLAFLAYPEVASNLPMKQVFAVLFFLMITILGLDSQVCMMEGLFTALEDAFPILRKYKKQSLGIFCLFFFCIGIPMVTHSGSHWLTLFDAYGASGYALLFVVFFEVVGLAYGFGAHNIRKALHEMIGVTLPKGIEYVWKFCAPATSLVLFVFCVVYYHPVKYPDGKDFPFWANAFGWFLSSCSMVVIPGYAIYYLFFTNKHLTLKERVRKGLNLDGSFESPAKKNLVNNAEELKFIESSSQ
Turning to B1, the Km in data set [4] was 320 ± 50 µM.
